“And” between values parts separate entries of the source, which are not always exact repeats. Equal values may be shown once.
How the values were obtained:
Format in all cases: cell-based
[1] = tested on: Mononuclear cells (MNC) derived from umbilical cord blood (UCB); experiment: CD3 expression by FACS of lyophilized, rehydrated MNC; settings: 0.1M Trehalose in PBS
Method: (§1) C. In this example a freezing solution composed of 0.1M Trehalose and either 0.47 mg/ml EGCG (×2.5) or 1.89 mg/ml EGCG (×10) in PBS was used. Samples volume was 2.5 ml and samples were frozen as described above and then lyophilized. After being in the lyophilizer for 72 h, the samples were taken out and rehydrated with 2.4 ml of DDW at 37° C. After rehydration samples were assayed for CD3 using FACS (fluorescent-activated cell sorter) in accordance with the method described in Huiling et al. The Journal of Immunology 2003, 171: 4824-4829, with minor modifications.

[2] = tested on: Red blood cells (RBC); experiment: Freezing RBC without thermal gradients at varying NaCl concentrations; settings: for Cell Number, Thawed / MCV, Thawed: 24 h at −80° C.
Method: Samples volume was 1 ml. The Samples were maintained for at least 10 min at 5° C. and then transferred to a metal plate in a conventional freezing device (Forma, USA) at −80° C. for a period of 24 h. […] The percentage shown, is the thawed samples as compared with a fresh sample.

[3] = tested on: Mononuclear cells (MNC) derived from umbilical cord blood (UCB); experiment: MNC proliferation assay based on thymidine incorporation; settings: FIG. 9; cells lyophilized at ×10 EGCG (4.12 mM) versus ×2.5 EGCG (1.03 mM); 48 hour incubation
Method: In addition, a cell proliferation assay was performed. In brief, the hydrated cells were incubated for 48 hour after which a proliferation assay based on thymidine incorporation was carried out (Promega, USA). The results of the proliferation assay are depicted in FIG. 9, wherein the proliferation index of the cells is depicted as a function of their number at initial plating. […] In addition, as the cells' initial plating number increases so does the proliferation index. The almost linear proportion shown for one of the ×10 EGCG samples is similar to that observed with fresh cells

[4] = tested on: Red blood cells (RBC); experiment: Post-thaw RBC hemolysis (cyanmethemoglobin assay, Drabkin's solution, Formula I); settings: 4.12 mM EGCG in 20% (w/v) Dextran 40, 0.8% NaCl; 1890° C./min; 24 hours at −80° C.
Method: In the following Examples, unless specifically said otherwise, free hemoglobin levels detection was done by using the cyanmethemoglubin assay using Drabkin's solution (Sigma, USA) and reading the absorbance at 540 nm using an ELISA reader (Bio Tek Instruments, USA). Hemoglobin (Hb) concentration was measured in the supernatant and in the pellet, and the hemolysis percentage was calculated using Formula I: […]
Freezing solution was mixed in a 1:1 ration with packed red blood cells.
RBC were frozen at a volume of 2.5 ml in a 16 mm diameter test tube (Manara, Israel) using the MTG freezing device. […] The test tubes were rotated during freezing at 60 rounds per minute. After freezing, samples were stored for 24 hours in a −80° C. freezer (Forma, USA). Thawing was performed by plunging the samples in a water bath at 37° C. for a period of time under a minute, when the samples visually appears to have been completely thawed.
Samples were rotated at 60 RPM.

[5] = tested on: Mononuclear cells (MNC) derived from umbilical cord blood (UCB); experiment: MNC viability by membrane integrity (SYBR14/PI) after freeze thawing or freeze drying; settings: for Mambrane integrity (%): 0.1M Trehalose in PBS
Method: Blood was separated on ficoll-paque gradient for 30 minutes at 1000 g. Afterwards the mononuclear layer was drawn out and washed twice in PBS for 10 minutes at 200 g. To each pellet one of the following freezing solutions was added:
2.5 ml of cell suspension were put in a 16 mm diameter glass test tube (Manara, Israel) and frozen using the MTG freezing apparatus (IMT, Israel). The temperature gradients were 1.5° C./mm and 0.428° C./mm, velocity was 0.2 mm/sec resulting in a cooling rate of 18° C./min and 5.1° C./min respectively. The first cooling rate was applied until the seeding temperature was reached. The samples were rotated at 56 rounds per minute (RPM).
After freezing samples were plunged into liquid nitrogen (LN), and then samples were either thawed at 37° C. in a water bath or put in a commercial lyophilizer (Labconco, USA) with a condenser temperature of −80° C. After drying the cells were rehydrated with DDW at 37° C.
Cells were counted using the PENTRA 60 cell counter, as described above. viability assessments were performed by evaluating the cells' membrane integrity using SYBR14 plus Propidium Iodide (PI) (Molecular Probes, USA) live/dead fluorescent staining. These stains are nucleic acid stains, SYBR14 is a membrane permeable molecule and PI can enter the cell only if the membrane is damaged.
as §1
Membrane integrity of the samples was evaluated before and after rehydration using SYBR 14 and PI (Molecular Probes, USA).

[6] = tested on: Red blood cells (RBC); experiment: Hypothermic preservation of whole blood at 4° C.: cell count, MCV, ATP bioluminescence; settings: on arrival, 15 minutes after adding, 1 week later, versus PBS bag
Method: Whole blood units, 2 days old, 500 ml each, were received from the Israeli blood services. 2 ml PBS were added to one bag and 2 ml PBS comprising 0.236 gram GTE (Taiyo, China) were added to the other. This GTE contains ˜80% catechins which contained the at least the following polyphenols: 48% EGCG, 10.8% epigallocatechin (EGC), 1.4% DL-Catechin (DL-C; (2S,3R)-2-(3,4-Dihydroxyphenol)-3,4-dihydro-1(2H)-benzopyran-3,5,7-triol), 5.6% epicatechin (EC). 2.6% gallocatechin gallate (GCG) and 14.5% epicatechin gallate (ECG). The final concentration of GTE was 0.4725 mg/ml. During delivery and storage the blood was maintained in a refrigerator at 4° C. storage.
1 ml samples were taken from each bag at the following times: (a) when the units arrived, (b) 15 minutes after adding PBS of EGCG and (c) 1 week later. The samples were counted and the mean cell value was measured using the Pentra 60 (ABX, France).
ATP content of each sample was assayed using ATP Bioluminescence Kit CLS II (Roche, Switzerland) according to the manufacturer's manual. In this assay, light emission is in direct proportion to the amount of ATP in the sample.

## O=C(O[C@@H]1Cc2c(O)cc(O)cc2O[C@@H]1c1cc(O)c(O)c(O)c1)c1cc(O)c(O)c(O)c1 [EGCG, Epigallocatechin gallate]
[1]; Lyophilized with 0.47 mg/ml EGCG
  CD3 (%): 80%
[1]; Lyophilized with 1.89 mg/ml EGCG
  CD3 (%): 81% and 83% and 82% and 78%
[2]; NaCl 0.6%
  Cell Number, % thawed compared with fresh: 100.00%
  MCV, % thawed compared with fresh: 120.22%
  Cell Number, Thawed: 4.12 10^9/ml
  MCV, Thawed: 107 μm^3
  Cell Number, Fresh: 4.12 10^9/ml
[2]; NaCl 0.7%
  Cell Number, % thawed compared with fresh: 100.00%
  MCV, % thawed compared with fresh: 124.44%
  Cell Number, Thawed: 4.27 10^9/ml
  MCV, Thawed: 112 μm^3
  Cell Number, Fresh: 4.27 10^9/ml
[2]; NaCl 0.8%
  Cell Number, % thawed compared with fresh: 100.00%
  MCV, % thawed compared with fresh: 118.89%
  Cell Number, Thawed: 4.71 10^9/ml
  MCV, Thawed: 107 μm^3
  Cell Number, Fresh: 4.71 10^9/ml
[2]; NaCl 0.9% (Saline)
  Cell Number, % thawed compared with fresh: 75.50%
  MCV, % thawed compared with fresh: 101.11%
  Cell Number, Thawed: 3.42 10^9/ml
  MCV, Thawed: 91 μm^3
  Cell Number, Fresh: 4.53 10^9/ml
[3]
  proliferation index: higher proliferation index
[4]
  Post thaw hemolysis: 3.5%
[5]; FIG. 7, 0.412, 1.03, 2.06, 4.12 mM EGCG with 0.1M trehalose in PBS, after freeze thawing and after freeze drying
  viability, effect of EGCG concentration: viability increased with EGCG concentration
[5]; Fresh with 0.47 mg/ml EGCG
  Mambrane integrity (%): 97.36 ± 2.2%
[5]; Fresh with 1.89 mg/ml EGCG
  Mambrane integrity (%): 90.01 ± 4.3%
[5]; Lyophilized with 0.47 mg/ml EGCG, rehydrated
  Mambrane integrity (%): 55.1 ± 8.5% and 59.8 ± 1.4%
[5]; Lyophilized with 1.89 mg/ml EGCG, rehydrated
  Mambrane integrity (%): 79.31 ± 8.8% and 83.62 ± 5.7% and 88.4 ± 3.2% and 88.03 ± 5.6%
[6]
  Cells counts: essentially the same
  MCV: essentially the same

Source: patent US8512941B2, “Biological material and methods and solutions for preservation thereof” (Core Dynamics Limited, priority 2004, dated 2013)
